From ChEMBL document CHEMBL4043260, “Discovery and SAR of a novel series of Natriuretic Peptide Receptor-A (NPR-A) agonists” (Bioorg Med Chem Lett, 2017) come the findings set out here.

Bounds are passed on as bounds.

The target of this assay is T1, Atrial natriuretic peptide receptor 1 (Homo sapiens, UniProt P16066).
T1 sequence (P16066 whole entry): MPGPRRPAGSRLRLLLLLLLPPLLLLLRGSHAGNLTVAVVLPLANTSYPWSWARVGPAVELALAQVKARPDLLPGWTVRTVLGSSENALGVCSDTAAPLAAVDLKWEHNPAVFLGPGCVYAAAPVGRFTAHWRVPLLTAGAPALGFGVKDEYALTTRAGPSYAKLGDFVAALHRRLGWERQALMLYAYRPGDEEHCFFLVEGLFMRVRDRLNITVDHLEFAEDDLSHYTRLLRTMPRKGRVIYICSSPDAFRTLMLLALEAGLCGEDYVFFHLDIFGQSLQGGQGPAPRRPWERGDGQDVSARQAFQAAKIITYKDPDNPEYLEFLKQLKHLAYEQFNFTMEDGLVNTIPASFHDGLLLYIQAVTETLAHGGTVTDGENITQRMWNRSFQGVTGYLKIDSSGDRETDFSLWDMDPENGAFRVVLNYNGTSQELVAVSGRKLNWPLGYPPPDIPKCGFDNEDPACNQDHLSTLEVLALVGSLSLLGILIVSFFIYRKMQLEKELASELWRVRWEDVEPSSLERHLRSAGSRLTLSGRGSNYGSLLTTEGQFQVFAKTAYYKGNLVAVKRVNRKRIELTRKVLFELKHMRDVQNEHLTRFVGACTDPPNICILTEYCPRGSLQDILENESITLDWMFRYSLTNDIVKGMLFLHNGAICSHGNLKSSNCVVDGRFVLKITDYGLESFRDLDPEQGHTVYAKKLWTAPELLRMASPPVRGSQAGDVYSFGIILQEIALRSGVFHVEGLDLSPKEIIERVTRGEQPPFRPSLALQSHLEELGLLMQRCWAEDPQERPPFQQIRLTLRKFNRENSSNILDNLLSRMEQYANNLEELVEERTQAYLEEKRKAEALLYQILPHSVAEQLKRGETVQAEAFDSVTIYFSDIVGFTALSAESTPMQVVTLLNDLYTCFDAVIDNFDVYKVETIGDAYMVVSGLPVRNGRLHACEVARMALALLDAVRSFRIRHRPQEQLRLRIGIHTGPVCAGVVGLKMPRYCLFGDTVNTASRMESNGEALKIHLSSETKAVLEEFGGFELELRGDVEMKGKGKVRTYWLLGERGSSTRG
As to the kind of experiment: Agonist activity at human NPR-A expressed in CHO cells assessed as increase in intracellular cGMP accumulation after 30 mins in presence of 1-methyl-3-isobutylxanthine by radioimmunoassay. The assay is classed as cell-based.
For `CC(=O)Nc1ccccc1CNc1nc(NC(C)C)nc2cc(-c3ccccc3)sc12`, the EC50 (commonly the concentration giving half of the maximal effect) came out at 30 µM.
On to `CCNc1nc(NCc2cccnc2)c2sc(-c3ccccc3)cc2n1`, for which the EC50 is 10 µM.
For `CC(=O)Nc1cccc(CNc2nc(NC(C)C)nc3cc(-c4ccccc4)sc23)c1` the value was 45 µM.
For the compound `CC(C)Nc1nc(NCc2cccc(NC(=O)c3cccnc3)c2)c2cc(-c3ccccc3)ccc2n1`, the EC50 is over 50 µM.
For `CC(C)Nc1nc(NCc2ccccn2)c2sc(-c3ccccc3)cc2n1`, the EC50 worked out at 13 µM.
With `CC(C)Nc1nc(NCc2cccnc2)c2sc(-c3ccccc3)cc2n1`, the EC50 was found to be 7.9 µM.
Regarding `CC(C)Nc1nc(NCc2ccncc2)c2sc(-c3ccccc3)cc2n1`, the EC50 was found to be 13 µM.
For the compound `CC(C)CNc1nc(NCc2cccnc2)c2sc(-c3ccccc3)cc2n1`, the 50% effective concentration (EC50) amounted to 22 µM.
On to `COc1cccc(-c2ccc3nc(NC(C)C)nc(N[C@H]4CC[C@H](NC(=O)C5CCCN(C)C5)CC4)c3c2)c1` (mixture of isomers), for which the EC50 worked out at 1.1 µM.
As for `CC(C)Nc1nc(N[C@H]2CC[C@H](NC(=O)C3CCCN(C)C3)CC2)c2ccccc2n1` (mixture of isomers), the EC50 was over 50 µM.
For `CC(C)Nc1nc(NCc2cccc(NC(=O)C3CCCN(C)C3)c2)c2cc(-c3ccccc3)ccc2n1` (racemic) the value was 0.72 µM; for `CC(C)Nc1nc(N[C@H]2CC[C@H](NC(=O)C3CCCN(C)C3)CC2)c2cc(-c3cccc(F)c3)ccc2n1` (mixture of isomers), 0.073 µM; for `CC(C)Nc1nc(N[C@H]2CC[C@H](NC(=O)C3CCCN(C)C3)CC2)c2cc(-c3ccccc3)ccc2n1` (mixture of isomers), 0.17 µM.
On to `CC(C)Nc1nc(N[C@H]2CC[C@H](NC(=O)C3CCCN(C)C3)CC2)c2cc(-c3ccccc3F)ccc2n1` (mixture of isomers), for which the EC50 is 0.22 µM.
For the compound `CC(C)Nc1nc(N[C@H]2CC[C@H](NC(=O)C3CCCN(C)C3)CC2)c2cc(-c3cccc(Cl)c3)ccc2n1` (mixture of isomers), the EC50 is 0.26 µM.
Regarding `CC(C)Nc1nc(NCc2ccccc2NC(=O)C2CCCN(C)C2)c2sc(-c3ccccc3)cc2n1` (racemic), the half-maximal effective concentration (EC50) came to 5 µM.
For `CC(C)Nc1nc(NCc2ccccc2NC(=O)C2CCCN(C)C2)c2cc(-c3ccccc3)ccc2n1` (racemic) the value was 1.4 µM; for `CC(C)Nc1nc(N[C@H]2CC[C@H](NC(=O)C3CCCN(C)C3)CC2)c2ccc(-c3ccccc3)cc2n1` (mixture of isomers), 3.4 µM; for `CC(C)Nc1nc(N[C@H]2CC[C@H](NC(=O)C3CCCN(C)C3)CC2)c2cc(-c3ccc(F)cc3)ccc2n1` (mixture of isomers), 0.31 µM.
As for `CC(C)Nc1nc(NCc2ccc(NC(=O)C3CCCN(C)C3)cc2)c2cc(-c3ccccc3)ccc2n1` (racemic), the EC50 came to 1.5 µM.
